Data: US7728038B2, “Methods for chelation therapy” (priority 2004, dated 2010)
Marks after values point to notes of the source that are not given here.

Experiments:
[1] = 241-Am retention in whole body and skeletal tissue of rats after GL22 treatment; assay type: in vivo; conditions: GL22 50 μmol/rat/day in food for 90 days
Protocol: 12 Male Sprague-Dawley rats from Simonsen Laboratories (Gilroy, Calif.) at about 80 days of age were given an intravenous injection of 241-Am-citrate in a total volume of 0.2 mL. For chelator treatment, the GL22 was dissolved in saline and the pH was adjusted to 7.5 with NaOH. Fourteen days after administration of 241-Am-citrate, a chelator food ration was started at 50 μmol/rat/day for 90 days orally, while the same food ration without chelator was given to controls. 50 μmol of chelator was added to the daily food ration (25 g). The total body retention of 241-Am was measured using a whole body-counter and after necropsy the skeletal tissues were counted for 241-Am content. The experimental protocol was described in an earlier publication. […] The same results have also been found for 239-Pu. Moreover, the excretion of iron from iron overloaded male rats that were treated by chelator was tested. The same rats as above at the age of 180 days were given 10 mg of iron as iron-dextran (Sigma, St. Louis, Mo.) subcutaneously every 3 days for 6 weeks to induce iron overloading. Then, a low iron diet (Teklab diet #80396) was given to the rats for 2 weeks as the baseline iron excretion reached plateau levels, which was determined by GFAA measurement of iron in feces. The chelator treated rats were given 20 g of low iron diet with 30 μmol of GL22 and control rats were given just 20 g of low iron diet each day for 14 days. Feces were collected every day for determination of iron excretion. The samples of feces were placed in glazed porcelain crucibles, dried at 100° C. overnight and ashed in a muffle furnace at 550° C. for 18 h. The ashed feces were dissolved in 4 mL of 3 N HCl and quantitatively transferred to a volumetric flask. The crucibles were then rinsed twice with 5 ml of 0.36 N HCl. The concentration of iron was determined by GFAA spectrophotometry (Perkin Elmer). After 14 days of chelation treatment by oral administration there were significant increases in the amounts of iron found in the feces when compared with controls (Table 7).

ovariectomized (Ovx) rat [2] = experiment: pQCT densitometry of lumbar vertebra BMD in chelator-treated Ovx rats; assay type: in vivo
Protocol: (§1) Animal and treatment: Three-month-old female Sprague-Dawley rats (Charles River Laboratory) were obtained and housed with a 12 h light-dark cycle at constant room temperature (24° C.) and humidity. The rats were fed standard rat chow (#8640 Harland Teklad, Madison, Wis.) and water ad libitum. When aged 6 month, the rats were divided into four groups. One group was sacrificed as baseline controls at the beginning of the experiment. The remaining groups were sham operated (one group) or bilaterally ovariectomized (two groups) via a dorsal approach. Chelation treatment started from the second day after surgery and was given three times a week for 9 weeks. The chelator (1-N-Docosyltriethylenetetraminepentaacetic acid, GL22) was dissolved in saline (pH 7.5) and was administrated by oral gavage (100 μmole/kg), while control groups including the sham and Ovx operated animals received vehicle only in the same manner.
(§2) Tissue preparation and analyses: Humeral bone was fixed in 70% ethanol for measurement of tissue iron by EPR. Lumbar vertebrae were first fixed in 10% phosphate buffered formalin for 24 hours, then dehydrated in ascending concentrations of ethanol and embedded in methyl methacrylate. The blocks were trimmed for peripheral computed tomography (pQCT), micro-computed tomography (μ-CT) and later prepared for histomorphometric studies.
pQCT densitometry: The L3 vertebra bodies were examined by pQCT densitometry (Norland Stratec XCT 960A, Birkenfeld, Germany) to determine bone mineral density (BMD) for the part from the middle point to the caudal end, excluding the primary spongiosa. A scout scan of the vertebra was performed, and on the scout view, a reference line was manually placed such that the cross-sectional slice passed through at a distance of 1, 2, 3 and 4 mm from caudal end of lumbar vertebra body. The voxel size was 196 μm. Contour mode 2, Peel mode 20, Cortical mode 2 and threshold 570 for cortical bone was chosen for the analysis. The mean BMD for all of the measured slices was then calculated.

ovariectomized (Ovx) rat [3] = experiment: Free iron contents in humeral cortical bone of Ovx rats by EPR after oral chelation treatment; assay type: in vivo; conditions: chelator 100 μmole/kg oral gavage three times a week for 9 weeks, FIG. 1
Protocol: as §1, with “manner. […]” for “manner.”
Iron measurement: Total iron contents of femoral cortical bones of aged women were assessed using ICP-OES performed by Galbraith Laboratories, Inc. (Knoxville, Tenn.). […] Each sample of about 100 mg was mixed with acid solution, microwave digested and measured. […]

ovariectomized (Ovx) rat [4] = experiment: Micro-CT morphometry of lumbar vertebra cancellous bone in chelator-treated Ovx rats; assay type: in vivo
Protocol: as §1, §2
μ-CT measurement: Lumbar vertebra were scanned in all three dimensions with a high-resolution μ-CT (10 μm) (Scanco μCT-40, Scanco Medical, Bassersdorf, Switzerland). The complete third vertebral bodies were scanned with 600 slices, each containing 2048×2048 pixels. The trabecular and cortical part of the bodies were separated with semi-automatically drawn contours. The resulting grey-sclae images were segmented using a low-pass filter to remove noice and a fixed threshold to extract the mineralized bone phase. From the binary images, structural indices were assessed with three-dimensional techniques without model-assumptions of the appearance of trabecular bone and were calculated by measuring three-dimensional distances directly in the travecular network and taking the mean over all voxels. The region of interest was travecular bone in the lumbar vertebral body, excluding the prmary songiosa area, 0.5 mm from the growth plate.

iron overload rats = experiment: Iron excretion in feces of iron overload rats treated by GL22 (GFAA); assay type: in vivo, rat; conditions: 30 μmol GL22 in low iron diet each day for 14 days
Protocol: 12 Male Sprague-Dawley rats from Simonsen Laboratories (Gilroy, Calif.) at about 80 days of age were given an intravenous injection of 241-Am-citrate in a total volume of 0.2 mL. For chelator treatment, the GL22 was dissolved in saline and the pH was adjusted to 7.5 with NaOH. Fourteen days after administration of 241-Am-citrate, a chelator food ration was started at 50 μmol/rat/day for 90 days orally, while the same food ration without chelator was given to controls. 50 μmol of chelator was added to the daily food ration (25 g). The total body retention of 241-Am was measured using a whole body-counter and after necropsy the skeletal tissues were counted for 241-Am content. The experimental protocol was described in an earlier publication. […] The same results have also been found for 239-Pu. Moreover, the excretion of iron from iron overloaded male rats that were treated by chelator was tested. […] Then, a low iron diet (Teklab diet #80396) was given to the rats for 2 weeks as the baseline iron excretion reached plateau levels, which was determined by GFAA measurement of iron in feces. […] The ashed feces were dissolved in 4 mL of 3 N HCl and quantitatively transferred to a volumetric flask. […] The concentration of iron was determined by GFAA spectrophotometry (Perkin Elmer). […]

ovariectomized (Ovx) rat [5] = experiment: EPR free iron (BC) and LLOFR (NC) of humeral bone, OVX rats treated with GL22; assay type: in vivo; conditions: GL22 30 μmol/kg orally three times a week, 60 days post-surgery
Protocol: (§3) In another experiment, four groups of 3 or 4 rats (Sprague-Dawley, Charley River) each were used. The baseline group consisted of 3 normal rats, which were sacrificed at six months of age. The humeral bones were collected for EPR free iron and LLOFR measurements and the whole body bone mineral density (BMD) was assessed by Dual x-ray absorptiometry (Hologic QDR1000 Plus) before necropsy. The other three groups were sham ovariectomized (one group) or ovariectomized (two groups) at the same age. The operation (a dorsal approach of bilateral ovariectomy) was under aseptic conditions with Ketamine-Xylazine anesthesia. One group of OVX animals was treated by chelation therapy with 30 μmol/kg body weight of GL22 in saline solution (pH 7.5). The GL22 was orally administered by intubation with a blunt-ended stainless steel needle three times a week. The other two groups received the saline solution without chelator by the same manner. All groups were sacrificed at 60 days post-surgery to collect humeral bones for EPR free iron and LLOFR measurements. Before the termination, whole body BMD was measured.

[6] = system: heavy metal overload animals; conditions: in vivo; cited from earlier work
ovariectomized (Ovx) rat [7] = experiment: Whole body BMD by dual x-ray absorptiometry, OVX rats treated with GL22; assay type: in vivo
Protocol: as §3

horse spleen ferritin = target: T1, horse spleen ferritin (Equus caballus, UniProt P02791+Q8MIP0); experiment: Removal of iron from ferritin by incubation with chelators; assay type: biochemical; conditions: Tris buffer 25 mM, pH 7.5, 37° C., chelator 0.47 mM, DFO 0.19 mM, up to 72 h
T1 construct: incubation of horse spleen ferritin with chelators 1a and 1b; from tissue; host or cells: horse spleen
Protocol: These chelators reacted with iron (III) forming purple complexes (UV: λmax=456 nm (ε4.6×10^3) for 1a; λmax=459 nm (λ4.45×10^3) for 1b) which have the chelator iron stoichiometry of 3:1. […] The chelators can also react with Al and Zn forming white powder complexes, and with Cu forming a green colored complex. These complexes were very soluble in water. […] The removal of iron from ferritin was determined by incubation of horse spleen ferritin with chelators 1a and 1b in Tris buffer (25 mM, pH 7.5, 37° C.) at a concentration of 0.47 mM, using DFO (0.19 mM) as a reference chelator similar to that described by Kontoghiorghes. The concentrations of the iron complex were measured spectrophotometrically from λmax values. The kinetics of iron release were investigated for a of period up to 72 h.

[8] = n-octanol/Tri-HCl buffer system; cited from earlier work
ovariectomized (Ovx) rat [9] = experiment: EPR free iron (BC) and LLOFR (NC) of humeral bone, OVX rats treated with estradiol; assay type: in vivo; conditions: 17b-estradiol 10 μg/kg IP three times a week, 60 days post-surgery
Protocol: EPR-osseous tissue sample preparation and measurement: Samples of human femoral cortical bone preserved in 70% alcohol were initially crushed into large pieces (<1 mm) using a mortar and pestle. The granules were defatted with 10 changes of acetone and dried at 60° C. The samples then were further crushed and sieved to obtain a 250-600 micrometer fraction. The EPR measurement of approximately 100 mg of sample were made at 24° C. with values for g-factors of 2.00503±0.00019 (NC) and 2.00541±0.00085 (BC) and with widths of 0.916±0.0465 mT (NC) and 2.5 mT (BC) following a modification of known protocols.^74-75 A Bruker 300E spectrometer at 9.7 GHz was used for date collection.
Humeral bones from four groups of 3 or 4 rats (Sprague-Dawley, Charley River) each were evaluated. The baseline group consisting of 3 normal rats were sacrificed at six months of age using Ketamine-Xylazine anesthesia. The other three groups (4 rats each) were sham ovariectomized (SHAM) (one group) or ovariectomized (OVX) (two groups) at the same age. Bilateral ovariectomy was performed using a dorsal approach under aseptic conditions with Ketamine-Xylazine anesthesia.^76 One group of OVX animals was treated by estradiol IP injection with 10 μg/kg body weight of 17b-estradiol in benzyl alcohol/corn oil solution (5:95, vol/vol). The injections were three times a week. […]

[10] = Ovx rats treated with chelator, lumbar vertebra, pQCT
[11] = chelator-treated Ovx rats, μ-CT

T1 sequence (P02791 2-175 limits assumed): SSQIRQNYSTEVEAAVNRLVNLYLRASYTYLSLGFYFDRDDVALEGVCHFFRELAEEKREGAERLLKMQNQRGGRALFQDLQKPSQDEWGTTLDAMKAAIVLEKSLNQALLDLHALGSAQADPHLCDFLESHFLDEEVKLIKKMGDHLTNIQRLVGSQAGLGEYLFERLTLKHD
T1 sequence (Q8MIP0 whole entry): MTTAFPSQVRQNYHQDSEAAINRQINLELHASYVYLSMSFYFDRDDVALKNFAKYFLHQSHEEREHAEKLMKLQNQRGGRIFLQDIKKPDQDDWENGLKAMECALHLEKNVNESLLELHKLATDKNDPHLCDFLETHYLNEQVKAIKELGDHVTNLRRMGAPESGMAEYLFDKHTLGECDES

## CCCCCCCCCCCCCCCCCCCCCCN(CCN(CCN(CCN(CC(=O)O)CC(=O)O)CC(=O)O)CC(=O)O)CC(=O)O [GL22, 1-N-Docosyltriethylenetetraminepentaacetic acid]
[1]
  241-Am retention, Femur: 4.06 ± 0.08%
  241-Am retention, Humerus: 3.97 ± 0.09%
  241-Am retention, Vertebral body: 4.05 ± 0.23%
[1]; started 14 days after 241-Am-citrate iv
  241-Am retention, Whole body: 50.8 ± 0.7%
Ovariectomized (Ovx) rat [2]; FIG. 2A, ANOVA p<0.01, 6 rats per group
  Trabecula BMD of spine bone versus Ovx group: significantly higher
Ovariectomized (Ovx) rat [2]; FIG. 2B, ANOVA p<0.05, 6 rats per group
  Total BMD of spine bone versus Ovx group: significantly higher
Ovariectomized (Ovx) rat [2]; Ovx rats treated with chelator
  trabecular BMD compared with sham control: 91.8%
Ovariectomized (Ovx) rat [2]; [10]
  trabecular BMD of the spine, higher than Ovx rats: 20%
  trabecular BMD of the spine, less than sham control: 8.2%
Ovariectomized (Ovx) rat [3]
  iron content in bone, percent of that of Ovx rats without chelation treatment: 59.8%
  iron content in bone, percent of that of sham controls: 73.0%
Ovariectomized (Ovx) rat [4]; Ovx rats treated with chelator
  BV/TV compared with sham control: 85.2%
  Tr. Sp. increase compared with sham control: 8%
Ovariectomized (Ovx) rat [4]; [11]
  bone volume to tissue volume (BV/TV), higher than untreated Ovx rats: 9.1%
  trabecular separation (Tr. Sp.), less than OVX controls: 10.2%
Iron overload rats
  Excreted Fe from feces: 1084.62 ± 88.54
Ovariectomized (Ovx) rat [5]
  BC (free iron) in bone: 202.7 ± 32.9^b a.u./mg
  NC (LLOFR) in bone: 1083 ± 127^b a.u./mg
[6]
  toxicity in treated heavy metal overload animals: without any indications of toxicity
Ovariectomized (Ovx) rat [7]; OVX rats, GL22 30 μmol/kg orally three times a week, 60 days post-surgery
  whole body BMD: 0.188 ± 0.004^b g/cm2
Ovariectomized (Ovx) rat [7]; judged from BMD of chelator-treated OVX rats versus SHAM rats (Table 5)
  removal of Ca from bone: not found to remove Ca from bone

## Cc1c(O)c(=O)ccn1COCCO [1a]
Horse spleen ferritin
  removing iron from ferritin, compared with DFO: more effective than DFO

## Cc1c(O)c(=O)ccn1C [L1, 1,2-dimethyl-3-hydroxyl-4-pyridinone]
[8]
  distribution coefficient (DC): 0.24

## CCc1c(O)c(=O)ccn1COCCO [1b]
Horse spleen ferritin
  removing iron from ferritin, compared with DFO: more effective than DFO

## C[C@]12CC[C@@H]3c4ccc(O)cc4CC[C@H]3[C@@H]1CC[C@@H]2O [Estrogen, 17b-estradiol]
Ovariectomized (Ovx) rat [9]
  BC (free iron) of EPR signal of humeral bone: 214.3 ± 11.1^b a.u./mg
  NC (LLOFR) of EPR signal of humeral bone: 1357.5 ± 101.4^b a.u./mg
